According to patent US10800791B2, “Triazole ACC inhibitors and uses thereof” (Gilead Apollo, LLC, priority 2015, dated 2020):
≈ marks a conversion by molar mass, not a printed value. Like-named read-outs stand apart in the source and are kept apart here.

What was measured:
Botrtyis cinerea (Bc) = assay: Growth inhibition assay of fungal pathogens, Bc; format: cell-based; conditions: 48 h
How it was run: (§1)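 Spores diluted in 17% V8 liquid media and incubated with compound at final 50, 10, 2 ppm or 2, 0.4, 0.08 ppm (2% DMSO). OD600 plus visual ratings at 24 and 48 hours, blank-subtracted; percent growth inhibition from 48 h readings relative to 2% DMSO control.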

[1] = test system: Phytophthora capsici (Pc); assay: Growth inhibition assay of fungal pathogens, Pc; format: cell-based; conditions: 48 h
How it was run: as §1

C. albicans = assay: Antifungal Activity Assay (broth microtiter MIC), C. albicans; format: cell-based, Candida albicans; conditions: Candida albicans, ATCC90028, 48 h
How it was run: (§2)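 Endpoint: lowest concentration visibly inhibiting growth relative to control after 48 h. Inoculum of 2.5×10^3 CFU/mL final in RPMI 1640+MOPS, prepared from overnight 35° C agar cultures; test compounds diluted in water to 128 μg/mL before plating.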

Rhizoctonia solani (Rs) = assay: Growth inhibition assay of fungal pathogens, Rs; format: cell-based; conditions: 48 h
C. parapsilosis = assay: Antifungal Activity Assay (broth microtiter MIC), C. parapsilosis; format: cell-based, Candida parapsilosis; conditions: Lodderomyces parapsilosis, ATCC22019, 48 h
How it was run: as §2

Diplodia maydis (Dm) = assay: Growth inhibition assay of fungal pathogens, Dm; format: cell-based; conditions: Stenocarpella maydis, 48 h
How it was run: as §1

C. krusei = assay: Antifungal Activity Assay (broth microtiter MIC), C. krusei; format: cell-based, Candida krusei; conditions: Pichia kudriavzevii, ATCC6258, 48 h
How it was run: as §2

human (hACC2) = human (hACC2) (Homo sapiens, UniProt O00763); assay: In vitro ACC inhibition assay (ADP-Glo), hACC2; format: biochemical; conditions: 5 nM ACC2, 20 μM ATP, 20 μM acetyl-CoA
Chain of human (hACC2) (O00763 whole entry): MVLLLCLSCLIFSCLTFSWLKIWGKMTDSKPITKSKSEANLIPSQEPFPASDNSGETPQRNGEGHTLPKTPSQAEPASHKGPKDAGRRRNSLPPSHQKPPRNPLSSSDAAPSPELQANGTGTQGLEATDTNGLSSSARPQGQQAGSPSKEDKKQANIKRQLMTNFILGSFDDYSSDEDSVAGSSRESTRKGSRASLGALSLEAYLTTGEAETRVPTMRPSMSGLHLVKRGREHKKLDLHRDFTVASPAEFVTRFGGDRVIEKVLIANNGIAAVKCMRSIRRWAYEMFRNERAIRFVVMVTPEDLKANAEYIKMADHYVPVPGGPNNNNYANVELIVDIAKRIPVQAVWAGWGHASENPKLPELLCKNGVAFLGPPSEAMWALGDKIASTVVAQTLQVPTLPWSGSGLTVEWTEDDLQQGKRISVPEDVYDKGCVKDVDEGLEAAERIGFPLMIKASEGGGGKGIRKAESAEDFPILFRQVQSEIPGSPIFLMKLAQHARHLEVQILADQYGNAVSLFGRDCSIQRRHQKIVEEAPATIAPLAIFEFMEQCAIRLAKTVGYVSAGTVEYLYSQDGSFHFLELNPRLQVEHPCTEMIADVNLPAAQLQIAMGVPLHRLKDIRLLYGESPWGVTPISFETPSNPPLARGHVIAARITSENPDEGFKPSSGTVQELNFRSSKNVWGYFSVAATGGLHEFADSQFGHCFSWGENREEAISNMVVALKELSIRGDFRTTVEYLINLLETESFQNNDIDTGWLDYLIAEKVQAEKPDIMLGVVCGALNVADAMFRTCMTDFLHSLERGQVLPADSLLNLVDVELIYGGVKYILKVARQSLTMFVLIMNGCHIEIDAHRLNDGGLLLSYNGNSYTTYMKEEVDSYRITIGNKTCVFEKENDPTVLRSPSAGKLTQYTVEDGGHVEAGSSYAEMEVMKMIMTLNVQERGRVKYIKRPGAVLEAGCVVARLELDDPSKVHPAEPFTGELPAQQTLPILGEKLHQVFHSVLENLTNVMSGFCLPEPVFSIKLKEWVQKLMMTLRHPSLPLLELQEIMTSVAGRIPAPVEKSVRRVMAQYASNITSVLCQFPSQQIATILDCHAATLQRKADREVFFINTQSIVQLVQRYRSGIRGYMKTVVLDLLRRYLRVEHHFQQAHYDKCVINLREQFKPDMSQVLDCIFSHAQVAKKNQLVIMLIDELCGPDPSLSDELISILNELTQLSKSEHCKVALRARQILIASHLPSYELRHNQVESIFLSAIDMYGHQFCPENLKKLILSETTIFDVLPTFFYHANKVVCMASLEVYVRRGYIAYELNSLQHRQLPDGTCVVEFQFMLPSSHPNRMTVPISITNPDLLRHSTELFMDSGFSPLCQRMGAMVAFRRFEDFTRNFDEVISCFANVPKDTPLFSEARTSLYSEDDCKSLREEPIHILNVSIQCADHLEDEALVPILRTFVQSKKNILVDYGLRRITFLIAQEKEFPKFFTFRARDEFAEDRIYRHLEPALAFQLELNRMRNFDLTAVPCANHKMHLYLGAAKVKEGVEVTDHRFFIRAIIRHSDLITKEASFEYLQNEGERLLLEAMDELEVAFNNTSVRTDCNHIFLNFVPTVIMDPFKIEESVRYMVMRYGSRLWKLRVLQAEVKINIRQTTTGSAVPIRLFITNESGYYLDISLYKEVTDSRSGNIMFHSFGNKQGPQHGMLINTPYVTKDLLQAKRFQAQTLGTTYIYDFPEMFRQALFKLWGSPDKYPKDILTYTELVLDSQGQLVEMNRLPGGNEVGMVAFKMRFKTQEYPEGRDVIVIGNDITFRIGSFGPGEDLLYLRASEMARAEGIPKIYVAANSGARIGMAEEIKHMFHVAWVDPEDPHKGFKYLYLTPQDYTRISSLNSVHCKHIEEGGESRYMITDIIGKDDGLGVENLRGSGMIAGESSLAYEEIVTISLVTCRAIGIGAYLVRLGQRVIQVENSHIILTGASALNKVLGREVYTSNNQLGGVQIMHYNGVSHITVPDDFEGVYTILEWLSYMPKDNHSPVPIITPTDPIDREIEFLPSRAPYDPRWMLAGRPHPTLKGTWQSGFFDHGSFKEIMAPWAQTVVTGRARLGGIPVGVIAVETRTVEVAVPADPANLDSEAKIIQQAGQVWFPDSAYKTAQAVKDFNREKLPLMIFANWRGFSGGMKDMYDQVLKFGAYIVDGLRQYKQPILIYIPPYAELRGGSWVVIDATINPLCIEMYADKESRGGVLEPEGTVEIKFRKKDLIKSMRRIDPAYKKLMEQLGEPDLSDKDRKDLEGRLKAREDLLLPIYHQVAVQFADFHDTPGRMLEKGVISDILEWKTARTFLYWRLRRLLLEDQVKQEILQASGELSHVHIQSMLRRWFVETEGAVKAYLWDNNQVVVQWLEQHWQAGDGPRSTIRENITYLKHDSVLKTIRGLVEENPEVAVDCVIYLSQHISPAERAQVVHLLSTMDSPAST
Experimental: The detailed procedure is as follows. […] 10 μL ADP glo reagent was added. […] 20 μL kinase detection reagent was added.

[2] = test system: Fusarium virguliforme (Fv); assay: Growth inhibition assay of fungal pathogens, Fv; format: cell-based; conditions: 48 h
How it was run: as §1

fungal (fACC2) = fungal (fACC2) (UniProt Q00955); conditions: read-out: fACC2 (in vitro ACC2 Inhibition Assay, IC50), ADP-Glo, 5 nM ACC2, 20 μM ATP, 20 μM acetyl-CoA
Chain of fungal (fACC2) (Q00955 whole entry): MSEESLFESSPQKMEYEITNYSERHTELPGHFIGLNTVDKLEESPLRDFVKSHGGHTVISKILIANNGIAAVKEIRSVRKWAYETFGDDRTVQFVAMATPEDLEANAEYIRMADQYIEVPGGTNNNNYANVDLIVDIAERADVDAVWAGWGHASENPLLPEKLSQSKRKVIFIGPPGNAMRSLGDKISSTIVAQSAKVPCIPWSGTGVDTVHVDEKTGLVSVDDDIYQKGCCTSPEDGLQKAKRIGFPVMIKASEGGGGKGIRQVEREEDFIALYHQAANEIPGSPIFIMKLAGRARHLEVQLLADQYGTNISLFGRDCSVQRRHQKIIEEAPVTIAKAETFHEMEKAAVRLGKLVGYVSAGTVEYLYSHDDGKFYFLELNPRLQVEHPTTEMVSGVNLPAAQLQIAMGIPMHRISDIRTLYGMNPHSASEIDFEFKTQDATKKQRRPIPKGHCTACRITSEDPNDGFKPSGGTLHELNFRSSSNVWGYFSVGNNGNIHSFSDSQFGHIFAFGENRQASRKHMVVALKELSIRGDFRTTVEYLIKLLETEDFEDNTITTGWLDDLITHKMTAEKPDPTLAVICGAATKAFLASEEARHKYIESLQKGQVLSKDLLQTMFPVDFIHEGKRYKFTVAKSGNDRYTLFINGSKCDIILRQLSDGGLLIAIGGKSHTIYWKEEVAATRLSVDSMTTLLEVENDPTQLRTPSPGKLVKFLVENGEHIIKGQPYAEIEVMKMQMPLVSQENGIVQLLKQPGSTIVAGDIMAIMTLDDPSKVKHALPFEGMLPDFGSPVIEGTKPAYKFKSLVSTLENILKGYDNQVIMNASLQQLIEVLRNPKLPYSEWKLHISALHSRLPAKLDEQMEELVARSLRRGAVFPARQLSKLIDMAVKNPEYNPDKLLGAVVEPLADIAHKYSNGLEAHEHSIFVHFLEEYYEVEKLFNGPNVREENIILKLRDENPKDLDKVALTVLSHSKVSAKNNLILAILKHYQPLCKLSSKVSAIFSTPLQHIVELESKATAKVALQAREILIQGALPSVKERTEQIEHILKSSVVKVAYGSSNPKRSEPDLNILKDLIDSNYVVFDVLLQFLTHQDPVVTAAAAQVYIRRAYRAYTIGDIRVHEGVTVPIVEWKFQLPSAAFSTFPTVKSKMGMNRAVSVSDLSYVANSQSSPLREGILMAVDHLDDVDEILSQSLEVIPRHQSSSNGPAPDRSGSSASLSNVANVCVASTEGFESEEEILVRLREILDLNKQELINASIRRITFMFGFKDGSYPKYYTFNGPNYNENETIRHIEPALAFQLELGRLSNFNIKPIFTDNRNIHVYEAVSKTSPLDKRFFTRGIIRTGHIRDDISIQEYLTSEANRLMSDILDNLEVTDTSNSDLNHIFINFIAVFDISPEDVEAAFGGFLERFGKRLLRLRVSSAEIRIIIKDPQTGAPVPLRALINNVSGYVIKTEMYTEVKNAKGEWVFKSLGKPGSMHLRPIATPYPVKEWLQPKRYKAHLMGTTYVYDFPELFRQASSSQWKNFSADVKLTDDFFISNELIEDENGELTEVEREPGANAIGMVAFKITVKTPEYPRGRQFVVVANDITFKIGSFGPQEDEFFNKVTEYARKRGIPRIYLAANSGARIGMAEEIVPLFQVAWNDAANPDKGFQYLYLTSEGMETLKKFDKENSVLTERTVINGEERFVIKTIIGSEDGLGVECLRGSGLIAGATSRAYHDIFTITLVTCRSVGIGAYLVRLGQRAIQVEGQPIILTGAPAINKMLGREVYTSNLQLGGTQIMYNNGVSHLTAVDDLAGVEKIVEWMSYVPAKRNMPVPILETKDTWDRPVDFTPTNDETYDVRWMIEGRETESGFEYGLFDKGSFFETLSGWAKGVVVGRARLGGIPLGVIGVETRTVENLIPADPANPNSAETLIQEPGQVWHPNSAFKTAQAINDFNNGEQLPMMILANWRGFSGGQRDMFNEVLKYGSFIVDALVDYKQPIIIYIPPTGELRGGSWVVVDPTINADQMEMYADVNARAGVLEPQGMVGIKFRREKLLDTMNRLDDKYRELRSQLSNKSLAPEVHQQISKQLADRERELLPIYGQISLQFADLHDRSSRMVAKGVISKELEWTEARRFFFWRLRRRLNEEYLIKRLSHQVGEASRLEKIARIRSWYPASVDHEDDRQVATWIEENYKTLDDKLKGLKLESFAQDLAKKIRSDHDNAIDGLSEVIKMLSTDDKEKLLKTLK

[3] = Botrtyis cinerea, growth inhibition at 48 hours vs 2% DMSO control, read-out: Concentration at 90% Inhibition Bc
[4] = Botrtyis cinerea, growth inhibition vs 2% DMSO control at 48 hours, read-out: Concentration at 90% Inhibition Bc
[5] = growth inhibition at 48 hours vs 2% DMSO control, read-out: Concentration at 90% Inhibition Pc
[6] = growth inhibition vs 2% DMSO control at 48 hours, read-out: Concentration at 90% Inhibition Pc
[7] = Table 3a, ATCC 90028, 3 replicates, MIC recorded at 48 h, read-out: MIC, C. albicans ATCC 90028
[8] = Table 3b (additional results), ATCC 90028, 3 replicates, MIC recorded at 48 h, read-out: MIC, C. albicans ATCC 90028
[9] = mycelial plugs, growth inhibition at 48 hours vs 2% DMSO control, read-out: Concentration at 90% Inhibition Rs
[10] = mycelial plugs, growth inhibition vs 2% DMSO control at 48 hours, read-out: Concentration at 90% Inhibition Rs
[11] = Table 3a, ATCC 22019, 3 replicates, MIC recorded at 48 h, read-out: MIC, C. parapsilosis ATCC 22019
[12] = Table 3b (additional results), ATCC 22019, 3 replicates, MIC recorded at 48 h, read-out: MIC, C. parapsilosis ATCC 22019
[13] = Diplodia maydis, growth inhibition at 48 hours vs 2% DMSO control, read-out: Concentration at 90% Inhibition Dm
[14] = Diplodia maydis, growth inhibition vs 2% DMSO control at 48 hours, read-out: Concentration at 90% Inhibition Dm
[15] = Table 3a, ATCC 6258, 3 replicates, MIC recorded at 48 h, read-out: MIC, C. krusei ATCC 6258
[16] = Table 3b (additional results), ATCC 6258, 3 replicates, MIC recorded at 48 h, read-out: MIC, C. krusei ATCC 6258
[17] = growth inhibition at 48 hours vs 2% DMSO control, read-out: Concentration at 90% Inhibition Fv
[18] = growth inhibition vs 2% DMSO control at 48 hours, read-out: Concentration at 90% Inhibition Fv

Compound	IC50 (human (hACC2); Table 2a) [nM]	IC50 (human (hACC2); Table 2b, additional results) [nM]	IC50 (fungal (fACC2); Table 2a) [nM]	IC50 (fungal (fACC2); Table 2b, additional results) [nM]	IC90 (Botrtyis cinerea (Bc); [3]) [µg/mL]	IC90 (Botrtyis cinerea (Bc); [4]) [µg/mL]	IC90 [1, 5] [µg/mL]	IC90 [1, 6] [µg/mL]	MIC (C. albicans; [7]) [µg/mL]	MIC (C. albicans; [8]) [µg/mL]	IC90 (Rhizoctonia solani (Rs); [9]) [µg/mL]	IC90 (Rhizoctonia solani (Rs); [10]) [µg/mL]	MIC (C. parapsilosis; [11]) [µg/mL]	MIC (C. parapsilosis; [12]) [µg/mL]	IC90 (Diplodia maydis (Dm); [13]) [µg/mL]	IC90 (Diplodia maydis (Dm); [14]) [µg/mL]	MIC (C. krusei; [15]) [µg/mL]	MIC (C. krusei; [16]) [µg/mL]	IC90 [2, 17] [µg/mL]	IC90 [2, 18] [µg/mL]	also measured
COc1ccc(F)cc1[C@H](Cn1c(=O)n(C(C)(C)C(=O)NC(C)C)c(=O)c2c(C)c(-n3nccn3)sc21)OCCN(C)C [Compound I-76, (R)-2-(1-(2-(2-(dimethylamino)ethoxy)-2-(5-fluoro-2-methoxyphenyl)ethyl)-5-methyl-2,4-dioxo-6-(2H-1,2,3-triazol-2-yl)-1,4-dihydro-thieno[2,3-d]pyrimidin-3(2H)-yl)-N-isopropyl-2-methylpropanamide]	> 40	> 40	1 to 5	1 to 5																	IC90 (Botrtyis cinerea (Bc); read-out: Concentration at 90% Inhibition Bc, Botrtyis cinerea, growth inhibition at 48 hours vs 2% DMSO control): > 50 µg/mL; IC90 (Botrtyis cinerea (Bc); read-out: Concentration at 90% Inhibition Bc, Botrtyis cinerea, growth inhibition vs 2% DMSO control at 48 hours): > 50 µg/mL; IC90 ([1]; read-out: Concentration at 90% Inhibition Pc, Phytophthora capsici, growth inhibition at 48 hours vs 2% DMSO control): > 50 µg/mL; IC90 ([1]; read-out: Concentration at 90% Inhibition Pc, Phytophthora capsici, growth inhibition vs 2% DMSO control at 48 hours): > 50 µg/mL; MIC (C. albicans; read-out: MIC, C. albicans ATCC 90028, Table 3a, 3 replicates, MIC recorded at 48 h): 2.1 to 4 µg/mL (≈ 3.41 to 6.5 µM); MIC (C. albicans; read-out: MIC, C. albicans ATCC 90028, Table 3b (additional results), 3 replicates, MIC recorded at 48 h): 1.01 to 2 µg/mL (≈ 1.64 to 3.25 µM); IC90 (Rhizoctonia solani (Rs); read-out: Concentration at 90% Inhibition Rs, Rhizoctonia solani, mycelial plugs, growth inhibition at 48 hours vs 2% DMSO control): 10 µg/mL (≈ 16.2 µM); IC90 (Rhizoctonia solani (Rs); read-out: Concentration at 90% Inhibition Rs, Rhizoctonia solani, mycelial plugs, growth inhibition vs 2% DMSO control at 48 hours): > 50 µg/mL; MIC (C. parapsilosis; read-out: MIC, C. parapsilosis ATCC 22019, Table 3a, 3 replicates, MIC recorded at 48 h): 2.1 to 4 µg/mL (≈ 3.41 to 6.5 µM); MIC (C. parapsilosis; read-out: MIC, C. parapsilosis ATCC 22019, Table 3b (additional results), 3 replicates, MIC recorded at 48 h): 0.25 to 1 µg/mL (≈ 0.406 to 1.62 µM); IC90 (Diplodia maydis (Dm); read-out: Concentration at 90% Inhibition Dm, Diplodia maydis, growth inhibition at 48 hours vs 2% DMSO control): > 50 µg/mL; IC90 (Diplodia maydis (Dm); read-out: Concentration at 90% Inhibition Dm, Diplodia maydis, growth inhibition vs 2% DMSO control at 48 hours): > 50 µg/mL; MIC (C. krusei; read-out: MIC, C. krusei ATCC 6258, Table 3a, 3 replicates, MIC recorded at 48 h): 2.1 to 4 µg/mL (≈ 3.41 to 6.5 µM); MIC (C. krusei; read-out: MIC, C. krusei ATCC 6258, Table 3b (additional results), 3 replicates, MIC recorded at 48 h): 0.25 to 1 µg/mL (≈ 0.406 to 1.62 µM); IC90 ([2]; read-out: Concentration at 90% Inhibition Fv, Fusarium virguliforme, growth inhibition at 48 hours vs 2% DMSO control): > 50 µg/mL; IC90 ([2]; read-out: Concentration at 90% Inhibition Fv, Fusarium virguliforme, growth inhibition vs 2% DMSO control at 48 hours): > 50 µg/mL
COc1ccc(F)cc1[C@H](Cn1c(=O)n([C@@H](C)C(=O)NC2CCC2)c(=O)c2c(C)c(-n3nccn3)sc21)OCCO [Compound I-77, (S)—N-cyclobutyl-2-(1-((R)-2-(5-fluoro-2-methoxyphenyl)-2-(2-hydroxyethoxy)ethyl)-5-methyl-2,4-dioxo-6-(2H-1,2,3-triazol-2-yl)-1,4-dihydrothieno[2,3-d]pyrimidin-3(2H)-yl)propanamide]	10 to 40	10 to 40	1 to 5	1 to 5	0.4 (≈ 0.682 µM)	0.4 (≈ 0.682 µM)	> 50	> 50	1.1 to 2 (≈ 1.88 to 3.41 µM)	2.01 to 4 (≈ 3.43 to 6.82 µM)	2 (≈ 3.41 µM)	2 (≈ 3.41 µM)	1.1 to 2 (≈ 1.88 to 3.41 µM)	0.25 to 1 (≈ 0.426 to 1.7 µM)	2 (≈ 3.41 µM)	2 (≈ 3.41 µM)	2.1 to 4 (≈ 3.58 to 6.82 µM)	0.25 to 1 (≈ 0.426 to 1.7 µM)	0.4 (≈ 0.682 µM)	0.4 (≈ 0.682 µM)	
COc1ccc(F)cc1[C@H](Cn1c(=O)n([C@@H](C)C(=O)N(C)C(C)C)c(=O)c2c(C)c(-n3nccn3)sc21)OCCO [Compound I-78, (S)-2-(1-((R)-2-(5-fluoro-2-methoxyphenyl)-2-(2-hydroxy-ethoxy)ethyl)-5-methyl-2,4-dioxo-6-(2H-1,2,3-triazol-2-yl)-1,4-dihydrothieno[2,3-d]pyrimidin-3(2H)-yl)-N-isopropyl-N-methylpropanamide]	10 to 40	10 to 40	1 to 5	0.3 to 1	0.4 (≈ 0.68 µM)	0.4 (≈ 0.68 µM)	> 50	> 50	2.1 to 4 (≈ 3.57 to 6.8 µM)	1.01 to 2 (≈ 1.72 to 3.4 µM)	0.08 (≈ 0.136 µM)	0.08 (≈ 0.136 µM)	2.1 to 4 (≈ 3.57 to 6.8 µM)	2.01 to 4 (≈ 3.41 to 6.8 µM)	2 (≈ 3.4 µM)	2 (≈ 3.4 µM)	2.1 to 4 (≈ 3.57 to 6.8 µM)	1.01 to 2 (≈ 1.72 to 3.4 µM)	0.4 (≈ 0.68 µM)	0.4 (≈ 0.68 µM)	
COCCO[C@@H](Cn1c(=O)n(CC(=O)N2CCCC2)c(=O)c2c(C)c(-n3nccn3)sc21)c1cc(F)ccc1OC [Compound I-79, (R)-1-(2-(5-fluoro-2-methoxyphenyl)-2-(2-methoxy-ethoxy)ethyl)-5-methyl-3-(2-oxo-2-(pyrrolidin-1-yl)ethyl)-6-(2H-1,2,3-tria-zol-2-yl)thieno[2,3-d]pyrimidine-2,4(1H,3H)-dione]	10 to 40	10 to 40	1 to 5	1 to 5	2 (≈ 3.41 µM)	2 (≈ 3.41 µM)	> 50	> 50	2.1 to 4 (≈ 3.58 to 6.82 µM)	> 4.01	10 (≈ 17 µM)	> 50	2.1 to 4 (≈ 3.58 to 6.82 µM)	2.01 to 4 (≈ 3.43 to 6.82 µM)	2 (≈ 3.41 µM)	2 (≈ 3.41 µM)	2.1 to 4 (≈ 3.58 to 6.82 µM)	> 4.01	2 (≈ 3.41 µM)	10 (≈ 17 µM)	
